Test results as given in PubChem BioAssay AID330 (DTP/NCI, 2004).
Several values for one entry are separate records, joined by “and”; a condition that tells them apart may be missing. Equal values may be shown once. Toxic doses and inconclusive results are not listed.

Test system: P388 leukemia ip, CD2F1 mice, survival T/C
Experiment: NCI In Vivo Anticancer Drug Screen. Data for tumor model P388 Leukemia (intraperitoneal) in CD2F1 (CDF1) mice
Conditions: endpoint: median survival time, higher = longer survival
Procedure, shortened: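 Mice carrying the transplanted tumor received test compound or vehicle. Survival was recorded in each group, and the value is the treated-group measurement divided by that of the vehicle-treated control group.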

[1] = dose: 50.0 mg/kg/injection, schedule: Q04DX003 (ip), vehicle: saline with Tween-80
[2] = dose: 50.0 mg/kg/injection, schedule: Q01DX005 (ip), vehicle: Klucel (hydroxypropylcellulose) (HPC)
[3] = dose: 100.0 mg/kg/injection, schedule: Q01DX005 (ip), vehicle: Klucel (hydroxypropylcellulose) (HPC)
[4] = dose: 200.0 mg/kg/injection, schedule: Q01DX005 (ip), vehicle: Klucel (hydroxypropylcellulose) (HPC)
[5] = dose: 50.0 mg/kg/injection, schedule: Q01DX005 (ip), vehicle: saline with Tween-80
[6] = dose: 100.0 mg/kg/injection, schedule: Q01DX005 (ip), vehicle: saline with Tween-80
[7] = dose: 200.0 mg/kg/injection, schedule: Q01DX005 (ip), vehicle: saline with Tween-80
[8] = dose: 12.5 mg/kg/injection, schedule: Q01DX005 (ip), vehicle: saline
[9] = dose: 25.0 mg/kg/injection, schedule: Q01DX005 (ip), vehicle: saline
[10] = dose: 50.0 mg/kg/injection, schedule: Q01DX005 (ip), vehicle: saline

With `CC1(C)CN(C(C)(C)C)CC(C)(C)C(O)C1=O` (stereo not given) the T/C (dose: 100.0 mg/kg/injection, schedule: Q01DX001 (ip), vehicle: saline with Tween-80) was 100 % of control, the T/C (dose: 200.0 mg/kg/injection, schedule: Q01DX001 (ip), vehicle: saline with Tween-80) was 118 % of control and the T/C (dose: 400.0 mg/kg/injection, schedule: Q01DX001 (ip), vehicle: saline with Tween-80) was 104 % of control.

`CNc1cccc2c1C(=O)c1ccccc1C2=O` was tested, and the T/C [1] was 93 % of control, the T/C (dose: 100.0 mg/kg/injection, schedule: Q04DX003 (ip), vehicle: saline with Tween-80) was 91 % of control and the T/C (dose: 200.0 mg/kg/injection, schedule: Q04DX003 (ip), vehicle: saline with Tween-80) was 97 % of control. The T/C (dose: 400.0 mg/kg/injection, schedule: Q04DX003 (ip), vehicle: saline with Tween-80) was 90 % of control.

With `CCC1c2ccc3cc(OC)ccc3c2CCC1(C)C(=O)O` (stereo not given) the T/C [2] was 100 % of control, the T/C [3] was 98 % of control and the T/C [4] was 100 % of control.

For `CCOC(=O)c1ccc(NC(c2ccc(N(CCCl)CCCl)cc2)P(=O)(Oc2ccccc2)Oc2ccccc2)cc1` (stereo not given), the T/C (dose: 50.0 mg/kg/injection, schedule: Q01DX009 (ip), vehicle: Klucel (hydroxypropylcellulose) (HPC)) was 93 % of control, the T/C (dose: 100.0 mg/kg/injection, schedule: Q01DX009 (ip), vehicle: Klucel (hydroxypropylcellulose) (HPC)) was 96 % of control and the T/C (dose: 200.0 mg/kg/injection, schedule: Q01DX009 (ip), vehicle: Klucel (hydroxypropylcellulose) (HPC)) was 95 % of control.

With `CC1=C(CCC(=O)O)c2cc3nc(cc4[nH]c(cc4C)cc4[nH]c(cc1n2)cc4C)C(C)(C)C3CCC(=O)O` (stereo not given) the T/C (dose: 3.0 mg/kg/injection, schedule: Q01DX009 (ip), vehicle: Klucel (hydroxypropylcellulose) (HPC)) was 97 % of control, the T/C (dose: 6.0 mg/kg/injection, schedule: Q01DX009 (ip), vehicle: Klucel (hydroxypropylcellulose) (HPC)) was 92 % of control and the T/C (dose: 12.0 mg/kg/injection, schedule: Q01DX009 (ip), vehicle: Klucel (hydroxypropylcellulose) (HPC)) was 90 % of control. For the same molecule, the T/C (dose: 24.0 mg/kg/injection, schedule: Q01DX009 (ip), vehicle: Klucel (hydroxypropylcellulose) (HPC)) was 87 % of control.

With `CC(C)[C@](O)(C(=O)OC1CCN2CCC(CO)C12)[C@H](C)O` (stereo not given in full) the T/C (dose: 11.5 mg/kg/injection, schedule: Q01DX009 (ip), vehicle: saline) was 111 % of control, the T/C (dose: 23.0 mg/kg/injection, schedule: Q01DX009 (ip), vehicle: saline) was 107 % of control and the T/C (dose: 46.0 mg/kg/injection, schedule: Q01DX009 (ip), vehicle: saline) was 105 % of control. The T/C (dose: 92.0 mg/kg/injection, schedule: Q01DX009 (ip), vehicle: saline) was 98 % of control.

`COc1ccc2c(c1)c(OC)c(CC(O)C(C)(C)O)c(=O)n2C` (stereo not given) was tested, and the T/C (dose: 110.0 mg/kg/injection, schedule: Q01DX001 (ip), vehicle: Klucel (hydroxypropylcellulose) (HPC)) was 96 % of control, the T/C (dose: 220.0 mg/kg/injection, schedule: Q01DX001 (ip), vehicle: Klucel (hydroxypropylcellulose) (HPC)) was 106 % of control and the T/C (dose: 440.0 mg/kg/injection, schedule: Q01DX001 (ip), vehicle: Klucel (hydroxypropylcellulose) (HPC)) was 110 % of control.

For `O=C1c2ccccc2C2CNC1(O)c1ccccc12` (stereo not given), the T/C [5] was 97 % of control, the T/C [6] was 97 % of control and the T/C [7] was 102 % of control.

For `CCCN(C)CC(C)(O)CNc1cc(OC)cc2cccnc12` (stereo not given), the T/C [8] was 100 % of control, the T/C [9] was 95 % of control and the T/C [5] was 106 % of control. For the same molecule, the T/C [10] was 99 % of control.

With `CCNC(=O)N1CC(=O)Nc2ccccc21` the T/C [5] was 101 % of control and the T/C [6] was 96 % of control.

`NC(=S)N/N=C\c1ncnc2ccccc12` was tested, and the T/C (dose: 1.0 mg/kg/injection, schedule: Q01DX009 (ip), vehicle: saline with Tween-80) was 104 % of control, the T/C (dose: 2.0 mg/kg/injection, schedule: Q01DX009 (ip), vehicle: saline with Tween-80) was 118 % of control and the T/C (dose: 4.0 mg/kg/injection, schedule: Q01DX009 (ip), vehicle: saline with Tween-80) was 100 % of control. The T/C (dose: 12.0 mg/kg/injection, schedule: Q01DX009 (ip), vehicle: saline with Tween-80) was 154 % of control, the T/C (dose: 12.5 mg/kg/injection, schedule: Q01DX009 (ip), vehicle: saline with Tween-80) was 150 % of control and the T/C (dose: 12.5 mg/kg/injection, schedule: Q04DX003 (ip), vehicle: saline with Tween-80) was 112 % of control. For the same molecule, the T/C (dose: 18.0 mg/kg/injection, schedule: Q01DX009 (ip), vehicle: saline with Tween-80) was 172 % of control, the T/C (dose: 25.0 mg/kg/injection, schedule: Q04DX003 (ip), vehicle: saline with Tween-80) was 116 % of control and the T/C [1] was 120 % of control.

`CN1CCc2c(n(C)c3ccccc23)C1=O` was tested, and the T/C (dose: 25.0 mg/kg/injection, schedule: Q04DX002 (ip), vehicle: saline with Tween-80) was 102 % of control, the T/C (dose: 50.0 mg/kg/injection, schedule: Q04DX002 (ip), vehicle: saline with Tween-80) was 98 % of control and the T/C (dose: 100.0 mg/kg/injection, schedule: Q04DX002 (ip), vehicle: saline with Tween-80) was 106 % of control. For the same molecule, the T/C (dose: 200.0 mg/kg/injection, schedule: Q04DX002 (ip), vehicle: saline with Tween-80) was 101 % of control and the T/C (dose: 400.0 mg/kg/injection, schedule: Q04DX002 (ip), vehicle: saline with Tween-80) was 99 % of control.

For `O=S12(OC(C(F)(F)F)(C(F)(F)F)c3ccccc31)OC(C(F)(F)F)(C(F)(F)F)c1ccccc12`, the T/C [2] was 111 % of control, the T/C [3] was 103 % of control and the T/C [4] was 100 % of control.

In the case of `Clc1ccccc1-n1cccc1/C=N\N=C/c1cccn1-c1ccccc1Cl`, the T/C [5] is reported as 107 % of control, the T/C [6] is reported as 110 % of control and 86 % of control and the T/C [7] is reported as 121 % of control and 86 % of control and 90 % of control.

For `CCN(CC)CCCNC(=O)C(c1ccccc1)c1ccccc1`, the T/C [8] was 100 % of control, the T/C [9] was 115 % of control and the T/C [10] was 100 % of control and 92 % of control.

In the case of `CCN(CC)C1=C2/C=CC3=C2\C(=C/C=C\C=C/1C)CC3=O`, the T/C (dose: 60.0 mg/kg/injection, schedule: Q01DX005 (ip), vehicle: Klucel (hydroxypropylcellulose) (HPC)) is reported as 95 % of control, the T/C (dose: 120.0 mg/kg/injection, schedule: Q01DX005 (ip), vehicle: Klucel (hydroxypropylcellulose) (HPC)) is reported as 98 % of control and the T/C (dose: 240.0 mg/kg/injection, schedule: Q01DX005 (ip), vehicle: Klucel (hydroxypropylcellulose) (HPC)) is reported as 96 % of control.

With `FC(F)(F)c1ccc2c(c1)N=C(NNC1=Nc3cc(C(F)(F)F)ccc3SC1)CS2` the T/C (dose: 15.0 mg/kg/injection, schedule: Q01DX005 (ip), vehicle: saline with Tween-80) was 91 % of control and the T/C (dose: 30.0 mg/kg/injection, schedule: Q01DX005 (ip), vehicle: saline with Tween-80) was 86 % of control.

For `CC1(C(O)CO)C=C2CCC3C(C)(C)C(O)CCC3(C)C2CC1` (stereo not given), the T/C (dose: 2.25 mg/kg/injection, schedule: Q01DX009 (ip), vehicle: Klucel (hydroxypropylcellulose) (HPC)) was 108 % of control, the T/C (dose: 4.5 mg/kg/injection, schedule: Q01DX009 (ip), vehicle: Klucel (hydroxypropylcellulose) (HPC)) was 103 % of control and the T/C (dose: 9.0 mg/kg/injection, schedule: Q01DX009 (ip), vehicle: Klucel (hydroxypropylcellulose) (HPC)) was 103 % of control. For the same molecule, the T/C (dose: 18.0 mg/kg/injection, schedule: Q01DX009 (ip), vehicle: Klucel (hydroxypropylcellulose) (HPC)) was 93 % of control.

With `CC[CH2][Sn]([Br])([Br])[CH2]CC` the T/C (dose: 3.12 mg/kg/injection, schedule: Q04DX003 (ip), vehicle: saline) was 114 % of control and the T/C (dose: 6.25 mg/kg/injection, schedule: Q04DX003 (ip), vehicle: saline) was 109 % of control.

For `O=C(O)c1nn(-c2ccc(Cl)cc2)c2c1C(=O)c1ccccc1C2=O`, the T/C (dose: 12.5 mg/kg/injection, schedule: Q01DX005 (ip), vehicle: Klucel (hydroxypropylcellulose) (HPC)) was 98 % of control, the T/C (dose: 25.0 mg/kg/injection, schedule: Q01DX005 (ip), vehicle: Klucel (hydroxypropylcellulose) (HPC)) was 91 % of control and the T/C [2] was 98 % of control and 89 % of control. For the same molecule, the T/C [3] was 92 % of control and the T/C [4] was 103 % of control.

For `CC(=O)N1OC2(C)c3ccccc3C1(C)c1ccccc12`, the T/C (dose: 50.0 mg/kg/injection, schedule: Q01DX009 (ip), vehicle: saline with Tween-80) was 100 % of control, the T/C (dose: 100.0 mg/kg/injection, schedule: Q01DX009 (ip), vehicle: saline with Tween-80) was 94 % of control and the T/C (dose: 200.0 mg/kg/injection, schedule: Q01DX009 (ip), vehicle: saline with Tween-80) was 92 % of control.
